From PMC5855545, “Role of Disulfide Bonds in Activity and Stability of Tigerinin-1R” (International Journal of Molecular Sciences, 2018)
Entries after “also recorded” stand apart in the source; their conditions may differ.

Tests used:
INS-1 cells [1] = experiment: Protection against palmitic acid-induced apoptosis (MTT viability); format: cell-based, rat; settings: 0.5 mM PA, 24 h
Method: Solutions of free fatty acids (FFAs) were prepared. Briefly, 100 mM palmitic acid (PA) stocks (Sigma, St. Louis, MO, USA) were prepared in 0.1 M NaOH at 70 °C. Ten percent (w/v) FFA-free BSA (Roche, Mannheim, Germany) solution was prepared in PBS buffer. A 5 mM FFA/10% BSA solution was prepared by mixing 50 μL FFA to 950 μL 10% BSA in a 60 °C water bath. The above solution was then cooled to room temperature, diluted in RPMI 1640 to 0.5 mM and filtered. Cells were added into 96-well plates (5 × 10^3 cells/well). Complete medium was withdrawn after overnight incubation at 37 °C. One hundred microliters of different peptides corresponding to a serial dilution series (concentrations 10^−9, 10^−7, 10^−5 M) diluted with medium containing 0.5 mM PA, was added for another 24 h. Meanwhile, incubation in fresh medium, with or without PA, were set as positive and negative controls, respectively. At the end of incubation, 20 μL of MTT solution (5 mg/mL in PBS) was added to each well and further incubated at 37 °C for 4 h. Cell viability was determined by dissolving the crystallized MTT with dimethyl sulfoxide (150 μL/well).

[2] = Reversed-phase HPLC retention time (relative hydrophobicity); format: physicochemical; settings: RP-HPLC at 25 °C; Zorbax 300 SB-C8 150 × 4.6 mm, linear AB gradient 1% acetonitrile/min, 1 mL/min, A 0.1% aqueous TFA pH 2, B 0.1% TFA in acetonitrile
INS-1 cells [3] = experiment: Insulin-releasing activity in vitro (rat insulin ELISA); format: cell-based; settings: 2.8 mM glucose; for insulin release at 10^−5 M compared with tigerinin-1R: 10^−5 M peptide, 1 h in KRB buffer at 37 °C, triplicate
Method: INS-1 cells were harvested with trypsin/EDTA, seeded into 6-well plates (3–5 × 10^5 cells/well), and allowed to attach overnight. Prior to the test, cells were preincubated in 1 mL Krebs-Ringer bicarbonate (KRB) buffer without glucose (115 mMNaCl, 4.7 mMKCl, 1.28 mM CaCl2,1.2 mM KH2PO4, 1.2 mM MgSO4, 10 mM NaHCO3, and 1 g/L BSA, pH 7.4) at 37 °C for 45 min. Cells were then incubated in the absence or presence of peptides for 1 h, using the same buffer with 2.8 mM glucose. The insulin supernatants were collected, and subsequently analyzed using ultrasensitive rat insulin ELISA kits (Mercodia, Sweden). The assay was repeated in triplicate.

[4] = Peptide degradation assay in 10% fetal bovine serum; format: in vitro ADME; settings: 200 μM peptide in PBS, 37 °C
Method: Peptides dissolved in PBS to a final concentration of 200 μM were incubated with 10% fetal bovine serum at 37 °C. At different time points (0, 60, and 120 min), 20 μL peptide samples were taken and diluted with an equal volume of 0.1% aqueous trifluoroacetic acid (TFA). The samples were then analyzed by RP-HPLC. The experiment was performed on a Shimadzu HPLC system with a Zorbax 300 SB-C8 column (150 × 4.6 mm I.D.; 5 µm particle size, 300 Å pore size; Agilent Technologies, Palo Alto, CA, USA) using a linear AB gradient (1% acetonitrile/min) and a flow rate of 1 mL/min, where solvent A was 0.1% aqueous TFA, pH 2, and solvent B was 0.1% TFA in acetonitrile at 25 °C.

high-fat fed mice = settings: administration to high-fat fed mice; cited from earlier work
From the text: (§1) Tigerinin-1R (Arg–Val–Cys–Ser–Ala–Ile–Pro–Leu–Pro–Ile–Cys–His–NH2) is a cationic peptide containing a disulfide bond that is isolated from the skin secretions of Hoplobatrachus ugulosus. […] In vivo studies have shown that administration of tigerinin-1R or some of its analog ...

bacteria = settings: cited from earlier work
From the text: as §1

INS-1 cells [5] = experiment: Measurement of intracellular Ca2+ (Fluo-3 AM, confocal microscopy); format: cell-based, rat; settings: 10^−5 M peptide, 2.8 mM glucose; less than 30 mM KCl, significantly greater than glucose alone
Method: INS-1 cells (2 × 10^5) were cultured in glass bottom dishes (NEST, Wuxi, China). Following overnight culture, the cells were washed with KRB buffer three times, and then incubated with 5 μM fluorescent Ca^2+ probe Fluo-3 AM solution (Solarbio, Beijng, China). After loading for 30 min and washing three times with KRB buffer, cells were incubated for 15 min in the absence of Fluo-3 AM. KRB buffer supplemented with 2.8 mM glucose containing 10^−5 M peptide was then added. Images of cells were obtained by laser scanning confocal microscope (LSM710, Carl Zeiss, Oberkochen, Germany). The fluorescence was excited at 480 nm at 4 s intervals, and detected at 515 nm. Incubations in the presence of 2.8 mM glucose alone (negative control) or extra 30 mM KCl (positive control) were also carried out individually.

Kunming male mice = experiment: Glucose tolerance in vivo in overnight-fasted mice; set-up: species or system mouse; settings: n = 6
Method: Kunming male mice were housed individually in an air-conditioned room (22 ± 2 °C) with a 12 h light/12 h dark cycle, and were handled in accordance with the Guide for Care and Use of Laboratory Animals in China and approved by the animal ethics committee of Jilin University (Approval No. JLUSWLL003, Jilin, China; dated on 10 May 2017). Drinking water and standard laboratory chow were freely available. No adverse effects were observed following administration of the peptides. Age-matched groups (n = 6) of overnight-fasted mice received an intraperitoneal injection of either glucose (18 mmol/kg body weight), tigerinin-1R (75 nmol/kg body weight), or [C11K]tigerinin-1R (75 nmol/kg body weight) individually as control groups, and glucose in combination with tigerinin-1R or glucose in combination with [C11K]tigerinin-1R as experimental groups, respectively. All solutions were administered in 0.9% NaCl (5 mL/kg body weight). Blood samples were collected from the cut tip of the tail vein of conscious mice, before injection and at 15, 30, 60, and 120 min immediately after injection, and glucose was measured using a Sannuo stable blood glucose meter (Changsha, China) using corresponding test strips.

For `CCCCCCCCCCCCCCCC(=O)O` [PA, palmitic acid], the “viability of INS-1 cells with PA (positive control)” value (INS-1 cells [1]) was 58.24%.
In the case of Ac-RVASAIPLPIAH-NH2 [tigerinin-linear], the “tR (min), retention time during reversed-phase HPLC (relative hydrophobicity)” value [2] is reported as 11.590 min and the “insulin release at 10^−5 M compared with tigerinin-1R” value (INS-1 cells [3]) is reported as “lower insulin-releasing activity than tigerinin-1R”.
In the case of “Ac-RVCSAIPLPIKH-NH2 [[C11K]tigerinin-1R]”, the “stability: RP-HPLC peak area of intact peptide after 60 min” value ([4]; 60 min) is reported as “decreased dramatically” and the “stability: RP-HPLC peak area of intact peptide at/within 120 min” value [4] is reported as “almost disappeared”.
With “CSAIPLPIC-amide (C–C) (disulfide) [tigerinin-cyclic, tigerinin-1R analog retaining only the cyclic moiety]” the “insulin release at 10^−5 M compared with tigerinin-1R” value (INS-1 cells [3]) was “decrease in insulin-releasing ability”.
In the case of “RVCSAIPLPICH-amide (C–C) (disulfide) [tigerinin-1R, Arg–Val–Cys–Ser–Ala–Ile–Pro–Leu–Pro–Ile–Cys–His–NH2, cationic 12-mer peptide containing a disulfide bond, from frog skin secretions; parent peptide, synthesized here]”, the “stability: RP-HPLC peak area of intact peptide at/within 120 min” value [4] is given as “changed very little”, the “insulin release and glucose tolerance in high-fat fed mice” value (high-fat fed mice) is given as “significantly enhanced insulin release and improved glucose tolerance” and the antibacterial activity (bacteria) is given as “lacks antibacterial activity”. The “concentration of intracellular Ca2+ (Fluo-3 fluorescence)” value (INS-1 cells [5]) was “produced an increase in the concentration of intracellular Ca^2+”, the “plasma glucose concentrations after peptide alone” value (Kunming male mice; 75 nmol/kg peptide i.p. alone, without glucose injection) was “little change in plasma glucose concentrations” and the “glucose tolerance / hypoglycemic ability (plasma glucose)” value (Kunming male mice; 75 nmol/kg peptide i.p. with glucose 18 mmol/kg, 15-120 min) was “improved glucose tolerance; also recorded: higher hypoglycemic ability than [C11K]tigerinin-1R”. The “tR (min), retention time during reversed-phase HPLC (relative hydrophobicity)” value [2] was 19.465 min and the “insulin secretion of INS-1 cells at different peptide concentrations” value (INS-1 cells [3]; 10^−8 to 10^−5 M, 1 h in KRB buffer pH 7.4 at 37 °C, compared to 2.8 mM glucose alone, n = 3) was “concentration-dependent manner”.
